Converted amounts (≈) assume the structure as drawn. “Also recorded” adds a separate entry of the source. Read-outs that look alike come from different tables or passages of the source. Marks after values point to notes of the source that are not given here.
Tests used:
S. epidermidis UC-20207 = test: Determination of minimum inhibitory concentration (microdilution); format: cell-based; conditions: Staphylococcus epidermidis, UC20207, 18 h, read-out: MIC (minimum inhibitory concentration)
S. epidermidis RP62A = test: as above; format: cell-based; conditions: Staphylococcus epidermidis, RP62A, 18 h, read-out: MIC (minimum inhibitory concentration)
S. hominis SP-2 = test: as above; format: cell-based; conditions: Staphylococcus hominis, SP2, 18 h, read-out: MIC (minimum inhibitory concentration)
S. aureus UC-20205 = test: Microtiter-plate adherence assay on polystyrene; format: cell-based; conditions: for Adherence Mean OD550: S. aureus UC-20205, 18 h
Method: (§1) Briefly, the inoculum was established by the direct colony suspension method using the Prompt™ Inoculation System (Becton Dickinson, Sparks, Md.). The bacteria suspension, which was equal to the turbidity of a 0.5 McFarland standard, was diluted in TSB to a concentration of 1×10^6 colony forming units per ml (CFU/mL). One hundred microliters of the cell suspension was added to flat-bottom polystyrene wells (Corning Costar, Corning, N.Y.) containing 100 μl of TSB, with and without drug. The final inoculum concentration per well was approximately 5×10^5 CFU/mL. The plates were incubated at 37° C. under static conditions in air. At 18 hours (h) post-infection, the optical density of bacterial growth was measured at a wavelength of 595 nm in a microtiter plate reader (Vmax; Molecular Devices, Sunnyvale, Calif.). […] Adherent “sessile” cells then were fixed with 3.7% (v/v) formaldehyde/2% (w/v) sodium acetate and stained with 0.1% (w/v) crystal violet. Excess stain was rinsed off with deionized water and the plates were air-dried for 4 h. The optical density of bacterial adherence was determined at a wavelength of 550 nm. Preliminary studies were performed to determine the optimal wavelengths for measuring growth turbidity and stained adherent cells (data not shown). To compensate for background absorbance, optical density readings from wells treated with sterile medium, fixative and stain as described above were averaged and then subtracted from all test and control wells. Relative inhibition of adherence or growth was expressed by the following equation: (OD of control well−OD of treated well/OD of control well)×100, where OD is the mean optical density of six replicate wells from two separate experiments (three replicates per experiment). Control was defined as infected, drug-free cultures.
(§2) The primary efficacy variable in this study was the measurement of adherent bacterial cells to polystyrene after 18 h of growth. To determine whether statistically significant differences existed between treatment groups (MIC, ½ MIC, and ¼ MIC) compared with the infected-nontreated controls, the Kruskal-Wallis one-way analysis of variance (ANOVA) was applied for each clinical strain. Statistical significance was defined as p-values ≦0.05. An asterisk (*) was placed by all test values less than or equal to the specified significance level.

S. aureus UC-20206 = test: Microtiter-plate adherence assay on polystyrene; format: cell-based; conditions: for Adherence Mean OD550: S. aureus UC-20206, 18 h
Method: as §1, §2

S. epidermidis UC-20208 [1] = test: Microtiter-plate adherence assay on polystyrene; format: cell-based; conditions: for Adherence Mean OD550: S. epidermidis UC-20208, 18 h
Method: as §1, §2

S. hominis SP2 = test: Microtiter-plate adherence assay on polystyrene, nonadherent reference strain; format: cell-based; conditions: data not shown
Method: Briefly, the inoculum was established by the direct colony suspension method using the Prompt™ Inoculation System (Becton Dickinson, Sparks, Md.). The bacteria suspension, which was equal to the turbidity of a 0.5 McFarland standard, was diluted in TSB to a concentration of 1×10^6 colony forming units per ml (CFU/mL). One hundred microliters of the cell suspension was added to flat-bottom polystyrene wells (Corning Costar, Corning, N.Y.) containing 100 μl of TSB, with and without drug. The final inoculum concentration per well was approximately 5×10^5 CFU/mL. The plates were incubated at 37° C. under static conditions in air. At 18 hours (h) post-infection, the optical density of bacterial growth was measured at a wavelength of 595 nm in a microtiter plate reader (Vmax; Molecular Devices, Sunnyvale, Calif.). […] The optical density of bacterial adherence was determined at a wavelength of 550 nm. […] To compensate for background absorbance, optical density readings from wells treated with sterile medium, fixative and stain as described above were averaged and then subtracted from all test and control wells. […]
Reliability of the microtiter-plate adherence assay was assessed with the reference strains S. hominis SP2 (nonadherent) and S. epidermidis RP62A (strongly adherent). The median optical density readings for SP2 and RP62A were 0.059±0.004 and 2.789±0.266, respectively. […]

S. epidermidis UC-20208 [2] = test: Time course adherence assay (prophylactic and delayed treatment); format: cell-based; conditions: for inhibition at 1 µg/mL / inhibition at 2 µg/mL / inhibition at 4 µg/mL / inhibition at 8 µg/mL: Staphylococcus epidermidis, read-out: Percent inhibition of bacterial adherence relative to controls; for Mean OD550: UC-20208
Procedure, shortened: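 Adherence of S. epidermidis to polystyrene read spectrophotometrically 18 h after treatment start, with drug at 4×MIC, 2×MIC, MIC and ½ MIC, given prophylactically or delayed. Inhibition (%) = (OD control − OD treated)/OD control × 100, from six wells over two experiments; control was infected drug-free culture. Dunnett's test vs untreated, p<0.05.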

[3] = tested on: S. aureus and S. epidermidis strains; test: Microtiter-plate adherence assay, summary over all strains evaluated; format: cell-based, staphylococci; conditions: concentrations less than the MIC, as low as one-fourth the MIC; five strains
Method: as §1, §2

[4] = tested on: S. epidermidis isolates (UC-20207, UC-20208, and RP62A); test: Time course adherence assay, summary over three S. epidermidis isolates; format: cell-based
Method: Drug effects on bacterial adherence were measured 18 hours after treatment initiation using a quantitative spectrophotometric assay.
Relative inhibition of adherence was expressed by the following equation: (OD of control well−OD of treated well/OD of control well)×100, where OD is the mean optical density of six replicate wells from two separate experiments (three replicates per experiment). Control was defined as infected, drug-free cultures.
The primary efficacy variable in this study was the measurement of adherent bacteria to polystyrene surfaces after 18 hours to 24 hours of growth. To determine whether statistically significant differences existed between treatments (4×MIC, 2×MIC, MIC, and ½ MIC) compared with the infected-nontreated controls, multiple comparisons according to Dunnett's test (Montgomery, Design and Analysis of Experiments (1991)) were applied for each clinical strain. Differences were considered statistically significant when p<0.05.

[5] = Staphylococcus aureus, UC20205, 18 h, read-out: Adherence % Inhibition
[6] = Staphylococcus aureus, UC20206, 18 h, read-out: Adherence % Inhibition
[7] = Staphylococcus epidermidis, UC20208, 18 h, read-out: Adherence % Inhibition

CN[C@H](CC(C)C)C(=O)N[C@H]1C(=O)N[C@@H](CC(N)=O)C(=O)N[C@H]2C(=O)N[C@H]3C(=O)N[C@H](C(=O)N[C@H](C(=O)O)c4cc(O)cc(O)c4-c4cc3ccc4O)[C@H](O)c3ccc(c(Cl)c3)Oc3cc2cc(c3O[C@@H]2O[C@H](CO)[C@@H](O)[C@H](O)[C@H]2O[C@H]2C[C@](C)(N)[C@H](O)[C@H](C)O2)Oc2ccc(cc2Cl)[C@H]1O [Vancomycin]
MIC (S. epidermidis UC-20207): 2 mg/L (≈ 1.38 µM)
MIC (S. epidermidis RP62A): 2 mg/L (≈ 1.38 µM)
MIC (S. hominis SP-2): 1 mg/L (≈ 0.69 µM)
Adherence Mean OD550 (S. aureus UC-20205; drug 0.25 μg/ml): 0.730 ± 0.202
Adherence Mean OD550 (S. aureus UC-20205; drug 0.5 μg/ml): 0.012 ± 0.013*
Adherence Mean OD550 (S. aureus UC-20205; drug 1.0 μg/ml): 0.000 ± 0.001*
inhibition at 0.25 µg/mL (S. aureus UC-20205; [5]): 0%
inhibition at 0.5 µg/mL (S. aureus UC-20205; [5]): 98%
inhibition at 1 µg/mL (S. aureus UC-20205; [5]): 100%
Adherence Mean OD550 (S. aureus UC-20206; drug 0.25 μg/ml): 0.192 ± 0.020
Adherence Mean OD550 (S. aureus UC-20206; drug 0.5 μg/ml): 0.267 ± 0.044
Adherence Mean OD550 (S. aureus UC-20206; drug 1.0 μg/ml): 0.000 ± 0.003*
inhibition at 0.25 µg/mL (S. aureus UC-20206; [6]): 12.5%
inhibition at 0.5 µg/mL (S. aureus UC-20206; [6]): 0%
inhibition at 1 µg/mL (S. aureus UC-20206; [6]): 9.99%
Adherence Mean OD550 (S. epidermidis UC-20208 [1]; drug 0.5 μg/ml): 2.165 ± 0.150
Adherence Mean OD550 (S. epidermidis UC-20208 [1]; drug 1.0 μg/ml): 2.716 ± 0.400
Adherence Mean OD550 (S. epidermidis UC-20208 [1]; drug 2.0 μg/ml (MIC)): 0.000 ± 0.001*
inhibition at 0.5 µg/mL (S. epidermidis UC-20208 [1]; [7]): 0%
inhibition at 1 µg/mL (S. epidermidis UC-20208 [1]; [7]): 0%
inhibition at 2 µg/mL (S. epidermidis UC-20208 [1]; [7]): 100%
promotion of adherence of the nonadherent strain (S. hominis SP2): Neither linezolid nor vancomycin promoted adherence
inhibition at 1 µg/mL (S. epidermidis UC-20208 [2]; UC20208, 0 h): 0%
inhibition at 2 µg/mL (S. epidermidis UC-20208 [2]; UC20208, 0 h): 99.9%
inhibition at 4 µg/mL (S. epidermidis UC-20208 [2]; UC20208, 0 h): 99.9%
inhibition at 8 µg/mL (S. epidermidis UC-20208 [2]; UC20208, 0 h): 99.9%
inhibition at 1 µg/mL (S. epidermidis UC-20208 [2]; UC20208, 2 h): 0%
inhibition at 2 µg/mL (S. epidermidis UC-20208 [2]; UC20208, 2 h): 99.1%
inhibition at 4 µg/mL (S. epidermidis UC-20208 [2]; UC20208, 2 h): 100%
inhibition at 8 µg/mL (S. epidermidis UC-20208 [2]; UC20208, 2 h): 100%
inhibition at 1 µg/mL (S. epidermidis UC-20208 [2]; UC20208, 4 h): 0%
inhibition at 2 µg/mL (S. epidermidis UC-20208 [2]; UC20208, 4 h): 0%
inhibition at 4 µg/mL (S. epidermidis UC-20208 [2]; UC20208, 4 h): 85.1%
inhibition at 8 µg/mL (S. epidermidis UC-20208 [2]; UC20208, 4 h): 99.6%
inhibition at 1 µg/mL (S. epidermidis UC-20208 [2]; UC20208, 6 h): 0%
inhibition at 2 µg/mL (S. epidermidis UC-20208 [2]; UC20208, 6 h): 0%
inhibition at 4 µg/mL (S. epidermidis UC-20208 [2]; UC20208, 6 h): 0%
inhibition at 8 µg/mL (S. epidermidis UC-20208 [2]; UC20208, 6 h): 0%
Mean OD550 (S. epidermidis UC-20208 [2]; 1.0 μg/ml, treatment 0 h post-infection): 1.865 ± 0.309
Mean OD550 (S. epidermidis UC-20208 [2]; 1.0 μg/ml, treatment 2 h post-infection): 1.865 ± 0.435
Mean OD550 (S. epidermidis UC-20208 [2]; 1.0 μg/ml, treatment 4 h post-infection): 1.752 ± 0.566
Mean OD550 (S. epidermidis UC-20208 [2]; 1.0 μg/ml, treatment 6 h post-infection): 1.127 ± 0.463
Mean OD550 (S. epidermidis UC-20208 [2]; 2.0 μg/ml (MIC), treatment 0 h post-infection): 0.001 ± 0.000
Mean OD550 (S. epidermidis UC-20208 [2]; 2.0 μg/ml (MIC), treatment 2 h post-infection): 0.014 ± 0.036
Mean OD550 (S. epidermidis UC-20208 [2]; 2.0 μg/ml (MIC), treatment 4 h post-infection): 2.414 ± 0.558
Mean OD550 (S. epidermidis UC-20208 [2]; 2.0 μg/ml (MIC), treatment 6 h post-infection): 1.281 ± 0.555
Mean OD550 (S. epidermidis UC-20208 [2]; 4.0 μg/ml, treatment 0 h post-infection): 0.001 ± 0.001
Mean OD550 (S. epidermidis UC-20208 [2]; 4.0 μg/ml, treatment 2 h post-infection): 0.000 ± 0.001
Mean OD550 (S. epidermidis UC-20208 [2]; 4.0 μg/ml, treatment 4 h post-infection): 0.239 ± 0.261
Mean OD550 (S. epidermidis UC-20208 [2]; 4.0 μg/ml, treatment 6 h post-infection): 1.555 ± 0.206
Mean OD550 (S. epidermidis UC-20208 [2]; 8.0 μg/ml, treatment 0 h post-infection): 0.001 ± 0.001
Mean OD550 (S. epidermidis UC-20208 [2]; 8.0 μg/ml, treatment 2 h post-infection): 0.000 ± 0.001
Mean OD550 (S. epidermidis UC-20208 [2]; 8.0 μg/ml, treatment 4 h post-infection): 0.006 ± 0.002
effect on bacterial adhesion at subinhibitory concentrations [3]: minimal or no activity against bacterial adhesion; also recorded: did not inhibit staphylococcal adherence in four of the five strains assessed
activity against cell adhesion ([4]; subtherapeutic concentrations (one-half MIC)): minimal or no activity against cell adhesion
anti-adhesion activity ([4]; therapeutic levels, administered 2 hours post-infection, compared with linezolid): equally effective
anti-adhesion activity ([4]; treatments delayed by 4 to 6 hours): only the highest concentrations (>MIC) demonstrated anti-adhesion activity
